For twelve compounds, IC50, GI50 and DC50 results are on record in US20250092039A1, “GLUTARIMIDE-CONTAINING PAN-KRAS-MUTANT DEGRADER COMPOUNDS AND USES THEREOF” (Tiger Biotherapeutics Inc., priority 2022, published 2025).

What is called IC50 is the midpoint of a concentration-inhibition curve. A word on the GI50: it is the concentration at which growth is held to half of that of the control. As usually defined, the DC50 is the concentration giving 50% degradation.

Read-outs that look alike come from different tables or passages of the source. Bounds are passed on as bounds.

One assay has as its target KRAS-G12V/RAF1 (Homo sapiens (Human), UniProt P01116, G12V). The experiment in a line: KRAS/RAF1 binding inhibition assay (AlphaScreen). The method, boiled down: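 Binding of GppNHp-loaded KRAS G12V to the RAF1 RBD was measured by AlphaScreen with test compound present in 2% DMSO (final), 60 min incubation at 4° C. Signals were converted to % inhibition versus DMSO, and IC50 was obtained by variable-slope nonlinear regression.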

The subject of another assay is SW620 cells. The experiment in a line: 3D cell growth inhibition of SW620 cells carrying endogenous KRAS G12V mutation (CellTiter-Glo 3D, GI50). The assay is classed as cell-based. As to conditions: Homo sapiens, SW-620, 144 h, read-out: SW620 3D cell growth GI50. The procedure: The following day, the test compound was administered to the cells by using 1000× compound stock solution prepared in DMSO at various concentrations. 1000× compound stock solution was first diluted in culturing medium to 10×, then 10 μL compound medium was added to each well in the cell plates. After administration of the compound, the cells were then incubated at 37° C. for 6 days. Upon completion, the plates were equilibrated at room temperature for approximately 10 minutes. 100 μL of CellTiter-Glo® 3D Reagent (Promega) was added to each well. The plates were then incubated at room temperature for 30 minutes and luminescence was recorded by EnSpire plate reader (PerkinElmer).
For orientation: In ATP-based viability assays light output follows the ATP content of the culture.

The target in the next assay is KRAS G12V (Homo sapiens (Human), UniProt P01116, G12V). The experiment in a line: KRAS G12V degradation in SW620 cells (Western blot, DC50). The assay is classed as cell-based. As to conditions: 24 hours. The method, boiled down: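 SW620 cells (homozygous KRAS G12V) were treated with compound for 24 hours at 37° C. KRAS in lysates was measured by Western blot with fluorescent secondary antibodies and expressed relative to DMSO vehicle (100%). DC50 came from a four-parameter variable-slope dose-response fit.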
(In general: In western blotting, separated proteins are transferred to a membrane and probed.)

Sequence of KRAS-G12V/RAF1 (P01116-2 other isoform, or with tags, fused parts or gaps G12V): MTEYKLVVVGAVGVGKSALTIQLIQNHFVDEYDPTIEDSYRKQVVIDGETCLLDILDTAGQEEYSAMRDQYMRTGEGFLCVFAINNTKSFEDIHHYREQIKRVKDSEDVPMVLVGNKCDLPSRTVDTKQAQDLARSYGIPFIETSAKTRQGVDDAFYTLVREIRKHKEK
Sequence of KRAS G12V (P01116-2 other isoform, or with tags, fused parts or gaps G12V): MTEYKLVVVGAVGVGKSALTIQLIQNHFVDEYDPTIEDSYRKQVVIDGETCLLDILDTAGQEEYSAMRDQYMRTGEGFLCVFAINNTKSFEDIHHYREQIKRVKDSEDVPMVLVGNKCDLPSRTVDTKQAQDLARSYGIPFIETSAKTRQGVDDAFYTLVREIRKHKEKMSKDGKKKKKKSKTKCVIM

Take `CCc1c(F)ccc2cc(O)cc(-c3ncc4c(N5CCOCC(C)(O)C5)nc(OCC5(CN6CCC7(CC6)CC(CN6CCN(c8ccc9c(c8)CN([C@H]8CCC(=O)NC8=O)C9=O)CC6)C7)CC5)nc4c3F)c12` (mixture of isomers) [Compound 91, (3S)-3-(5-(4-((7-((1-(((7-(8-ethyl-7-fluoro-3-hydroxynaphthalen-1-yl)-8-fluoro-4-(6-hydroxy-6-methyl-1,4-oxazepan-4-yl)pyrido[4,3-d]pyrimidin-2-yl)oxy)methyl)cyclopropyl)methyl)-7-azaspiro[3.5]nonan-2-yl)methyl)piperazin-1-yl)-1-oxoisoindolin-2-yl)piperidine-2,6-dione]: the IC50 at KRAS-G12V/RAF1 is 20 to 200 nM. Also, in the assay with SW620 cells, the GI50 is less than 10 nM. This compound also displayed a DC50 at KRAS G12V of 1 to 10 nM.
Regarding `CCc1c(F)ccc2cc(O)cc(-c3ncc4c(N5CCCC(C)(O)C5)nc(OCC5(CN6CCC7(CC6)CCC(C)(N6CCN(c8ccc9c(c8)CN(C8CCC(=O)NC8=O)C9=O)CC6)CC7)CC5)nc4c3F)c12` (stereo in doubt) [Compound 167, 3-[5-[4-[3-[[1-[[7-(8-ethyl-7-fluoro-3-hydroxy-1-naphthyl)-8-fluoro-4-[(3R)-3-hydroxy-3-methyl-1-piperidyl]pyrido[4,3-d]pyrimidin-2-yl]oxymethyl]cyclopropyl]methyl]-9-methyl-3-azaspiro[5.5]undecan-9-yl]piperazin-1-yl]-1-oxo-isoindolin-2-yl]piperidine-2,6-dione], the IC50 at KRAS-G12V/RAF1 was less than 20 nM. Besides, the 50% growth inhibitory concentration (GI50) with SW620 cells (SW620 cells, 6 days) was less than 10 nM. This compound came in with a DC50 at KRAS G12V of 1 to 10 nM.
As for `CCc1c(F)ccc2cc(O)cc(-c3ncc4c(N5CCC[C@@](C)(O)C5)nc(OCC5(CN6CCC7(CC6)CC(CN6CCN(c8ccc9c(c8)CN([C@H]8CCC(=O)NC8=O)C9=O)CC6)C7)CC5)nc4c3F)c12` [Compound 2, (S)-3-(5-(4-((7-((1-(((7-(8-ethyl-7-fluoro-3-hydroxynaphthalen-1-yl)-8-fluoro-4-((R)-3-hydroxy-3-methylpiperidin-1-yl)pyrido[4,3-d]pyrimidin-2-yl)oxy)methyl)cyclopropyl)methyl)-7-azaspiro[3.5]nonan-2-yl)methyl)piperazin-1-yl)-1-oxoisoindolin-2-yl)piperidine-2,6-dione], at KRAS-G12V/RAF1, the 50% inhibitory concentration (IC50) is 20 to 200 nM. For the same compound, in the assay with SW620 cells (SW620 cells, 6 days), the concentration for 50% growth inhibition (GI50) is 10 to 100 nM. On KRAS G12V, this compound showed a DC50 of less than 1 nM.
As to `CCc1c(F)ccc2cc(O)cc(-c3ncc4c(NCC5(N(C)C)CCC5)nc(OCC5(CN6CCC7(CC6)CC(CN6CCN(c8ccc9c(c8)CN([C@H]8CCC(=O)NC8=O)C9=O)CC6)C7)CC5)nc4c3F)c12` [Compound 3, (S)-3-(5-(4-((7-((1-(((4-(((1-(dimethylamino)cyclobutyl)methyl)amino)-7-(8-ethyl-7-fluoro-3-hydroxynaphthalen-1-yl)-8-fluoropyrido[4,3-d]pyrimidin-2-yl)oxy)methyl)cyclopropyl)methyl)-7-azaspiro[3.5]nonan-2-yl)methyl)piperazin-1-yl)-1-oxoisoindolin-2-yl)piperidine-2,6-dione], on KRAS-G12V/RAF1, the concentration for half-maximal inhibition (IC50) was greater than 200 nM. Also, the GI50 in the assay with SW620 cells (SW620 cells, 6 days) is greater than 100 nM. Moreover, the DC50 on KRAS G12V is greater than 100 nM.
In the case of `CCc1c(F)ccc2cc(O)cc(-c3ncc4c(N5CCC=CCC5)nc(OCC5(CN6CCC7(CC6)CC(CN6CCN(c8ccc9c(c8)CN([C@H]8CCC(=O)NC8=O)C9=O)CC6)C7)CC5)nc4c3F)c12` [Compound 4, (S)-3-(5-(4-((7-((1-(((7-(8-ethyl-7-fluoro-3-hydroxynaphthalen-1-yl)-8-fluoro-4-(2,3,6,7-tetrahydro-1H-azepin-1-yl)pyrido[4,3-d]pyrimidin-2-yl)oxy)methyl)cyclopropyl)methyl)-7-azaspiro[3.5]nonan-2-yl)methyl)piperazin-1-yl)-1-oxoisoindolin-2-yl)piperidine-2,6-dione], the IC50 on KRAS-G12V/RAF1 was greater than 200 nM. For the same compound, the GI50 with SW620 cells (SW620 cells, 6 days) was greater than 100 nM. The same compound gave a DC50 at KRAS G12V greater than 100 nM.
With `CCc1cccc2cc(O)cc(-c3ncc4c(N5CCC[C@@](C)(O)C5)nc(OCC5(CN6CCC(CN7CCN(c8ccc9c(c8)CN([C@H]8CCC(=O)NC8=O)C9=O)CC7)CC6)CC5)nc4c3F)c12` [Compound 6, (S)-3-(5-(4-((1-((1-(((7-(8-ethyl-3-hydroxynaphthalen-1-yl)-8-fluoro-4-((R)-3-hydroxy-3-methylpiperidin-1-yl)pyrido[4,3-d]pyrimidin-2-yl)oxy)methyl)cyclopropyl)methyl)piperidin-4-yl)methyl)piperazin-1-yl)-1-oxoisoindolin-2-yl)piperidine-2,6-dione], the IC50 on KRAS-G12V/RAF1 lay within 20 to 200 nM. The concentration for 50% growth inhibition (GI50) in the assay on SW620 cells (SW620 cells, 6 days) is less than 10 nM. For the same compound, the 50% degradation concentration (DC50) at KRAS G12V was less than 1 nM.
At KRAS-G12V/RAF1, `CCc1c(F)ccc2cc(O)cc(-c3ncc4c(N5CCC[C@@](C)(O)C5)nc(OCC5(CN6CC(N7CC(CN8CCN(c9ccc%10c(c9)CN([C@@H]9CCC(=O)NC9=O)C%10=O)CC8)C7)C6)CC5)nc4c3F)c12` [Compound 9, (R)-3-(5-(4-((1′-((1-(((7-(8-ethyl-7-fluoro-3-hydroxynaphthalen-1-yl)-8-fluoro-4-((R)-3-hydroxy-3-methylpiperidin-1-yl)pyrido[4,3-d]pyrimidin-2-yl)oxy)methyl)cyclopropyl)methyl)-[1,3′-biazetidin]-3-yl)methyl)piperazin-1-yl)-1-oxoisoindolin-2-yl)piperidine-2,6-dione] gave an IC50 of less than 20 nM. For the same compound, in the assay with SW620 cells (SW620 cells, 6 days), the GI50 fell in the range of 10 to 100 nM. This compound displayed a DC50 on KRAS G12V of 1 to 10 nM.
Take `CCc1c(F)ccc2cc(O)cc(-c3ncc4c(N5CCC[C@@](C)(O)C5)nc(OCC5(CN6CCN(CC7CCN(c8ccc9c(c8)CN([C@H]8CCC(=O)NC8=O)C9=O)CC7)CC6)CC5)nc4c3F)c12` [Compound 10, (S)-3-(5-(4-((4-((1-(((7-(8-ethyl-7-fluoro-3-hydroxynaphthalen-1-yl)-8-fluoro-4-((R)-3-hydroxy-3-methylpiperidin-1-yl)pyrido[4,3-d]pyrimidin-2-yl)oxy)methyl)cyclopropyl)methyl)piperazin-1-yl)methyl)piperidin-1-yl)-1-oxoisoindolin-2-yl)piperidine-2,6-dione]: the concentration for half-maximal inhibition (IC50) at KRAS-G12V/RAF1 was in the range of 20 to 200 nM. For the same compound, the GI50 in the assay with SW620 cells (SW620 cells, 6 days) is less than 10 nM. Besides, at KRAS G12V, the DC50 was less than 1 nM.
In the same order, the values of `CCc1c(F)ccc2cc(O)cc(-c3ncc4c(N5CCC[C@@](C)(O)C5)nc(OCC5(CN6CC7(CC(CN8CCN(c9ccc%10c(c9)CN([C@@H]9CCC(=O)NC9=O)C%10=O)CC8)C7)C6)CC5)nc4c3F)c12` [Compound 11, (R)-3-(5-(4-((2-((1-(((7-(8-ethyl-7-fluoro-3-hydroxynaphthalen-1-yl)-8-fluoro-4-((R)-3-hydroxy-3-methylpiperidin-1-yl)pyrido[4,3-d]pyrimidin-2-yl)oxy)methyl)cyclopropyl)methyl)-2-azaspiro[3.3]heptan-6-yl)methyl)piperazin-1-yl)-1-oxoisoindolin-2-yl)piperidine-2,6-dione] are less than 20 nM, 10 to 100 nM and 1 to 10 nM.
On to `CCc1c(F)ccc2cc(O)cc(-c3ncc4c(N5CCC[C@@](C)(O)C5)nc(OCC5(CN6CCC(O)(CN7CCN(c8ccc9c(c8)CN([C@H]8CCC(=O)NC8=O)C9=O)CC7)CC6)CC5)nc4c3F)c12` [Compound 13, (S)-3-(5-(4-((1-((1-(((7-(8-ethyl-7-fluoro-3-hydroxynaphthalen-1-yl)-8-fluoro-4-((R)-3-hydroxy-3-methylpiperidin-1-yl)pyrido[4,3-d]pyrimidin-2-yl)oxy)methyl)cyclopropyl)methyl)-4-hydroxypiperidin-4-yl)methyl)piperazin-1-yl)-1-oxoisoindolin-2-yl)piperidine-2,6-dione], for which the IC50 at KRAS-G12V/RAF1 was less than 20 nM. In addition, in the assay on SW620 cells (SW620 cells, 6 days), the GI50 fell in the range of 10 to 100 nM. The compound also registered a DC50 on KRAS G12V of 1 to 10 nM.
For the compound `CCc1c(F)ccc2cc(O)cc(-c3ncc4c(N5CCC[C@@](C)(O)C5)nc(OCC5(CN6CCC(CN7CCN(c8ccc(C9CCC(=O)NC9=O)cc8)CC7)CC6)CC5)nc4c3F)c12` (stereo partly drawn) [Compound 14, 3-(4-(4-((1-((1-(((7-(8-ethyl-7-fluoro-3-hydroxynaphthalen-1-yl)-8-fluoro-4-((R)-3-hydroxy-3-methylpiperidin-1-yl)pyrido[4,3-d]pyrimidin-2-yl)oxy)methyl)cyclopropyl)methyl)piperidin-4-yl)methyl)piperazin-1-yl)phenyl)piperidine-2,6-dione], the IC50 at KRAS-G12V/RAF1 was less than 20 nM. Further, the 50% growth inhibitory concentration (GI50) in the assay on SW620 cells (SW620 cells, 6 days) fell in the range of 10 to 100 nM. On KRAS G12V, this compound returned a DC50 greater than 100 nM.
At KRAS-G12V/RAF1, `CCc1c(F)ccc2cc(O)cc(-c3ncc4c(N5CCC[C@@]6(CCO6)C5)nc(OCC5(CN6CCC(CN7CCN(c8ccc9c(c8)CN([C@H]8CCC(=O)NC8=O)C9=O)CC7)CC6)CC5)nc4c3F)c12` [Compound 45, (S)-3-(5-(4-((1-((1-(((7-(8-ethyl-7-fluoro-3-hydroxynaphthalen-1-yl)-8-fluoro-4-((R)-1-oxa-6-azaspiro[3.5]nonan-6-yl)pyrido[4,3-d]pyrimidin-2-yl)oxy)methyl)cyclopropyl)methyl)piperidin-4-yl)methyl)piperazin-1-yl)-1-oxoisoindolin-2-yl)piperidine-2,6-dione] had an IC50 greater than 200 nM. In addition, the GI50 with SW620 cells (SW620 cells, 6 days) was greater than 100 nM.
